Test results reported in article PMC9862597, “Anti-Colorectal Cancer Effects of a Novel Camptothecin Derivative PCC0208037 In Vitro and In Vivo” (Pharmaceuticals, 2022).

Key:
LS180 cells = assay: MTT cell viability assay, LS180; type: cell-based; conditions: Homo sapiens, LS180, 72 h
Procedure: (§1) Cell viability was assessed using the MTT assay, as previously reported. Briefly, colorectal cancer cells (LS180, HCT116, CT-26, and HT-29 cells) were plated onto 96-well plates at 3000 cells per well and incubated overnight. […] Control cells were treated with DMSO at a final concentration of 0.1%. Cells were cultured with the compounds or medium for 72 h. The cells were then treated with MTT. The medium was then decanted, and DMSO was added and shaken until the color reaction was complete. The […] were read using a Molecular Devices SpectraMax M5 (San Jose, CA, USA) at OD570 nm. The half maximal inhibitory concentration (IC50) was calculated.

HCT116 cells = assay: MTT cell viability assay, HCT116; type: cell-based; conditions: Homo sapiens, HCT-116, 72 h
Procedure: as §1

recombinant Topo I = target: T1, recombinant Topo I (Homo sapiens, UniProt P11387); assay: Topoisomerase I activity assay (DNA relaxation); type: biochemical; conditions: PCC0208037 100 and 10 nmol/L, SN-38 100 nmol/L, CPT-11 100 nmol/L; 30 min, 37 °C
T1 construct: purchased TopoGEN, Inc (Buena Vista, CO, USA) TG1018
T1 sequence (P11387 1-765): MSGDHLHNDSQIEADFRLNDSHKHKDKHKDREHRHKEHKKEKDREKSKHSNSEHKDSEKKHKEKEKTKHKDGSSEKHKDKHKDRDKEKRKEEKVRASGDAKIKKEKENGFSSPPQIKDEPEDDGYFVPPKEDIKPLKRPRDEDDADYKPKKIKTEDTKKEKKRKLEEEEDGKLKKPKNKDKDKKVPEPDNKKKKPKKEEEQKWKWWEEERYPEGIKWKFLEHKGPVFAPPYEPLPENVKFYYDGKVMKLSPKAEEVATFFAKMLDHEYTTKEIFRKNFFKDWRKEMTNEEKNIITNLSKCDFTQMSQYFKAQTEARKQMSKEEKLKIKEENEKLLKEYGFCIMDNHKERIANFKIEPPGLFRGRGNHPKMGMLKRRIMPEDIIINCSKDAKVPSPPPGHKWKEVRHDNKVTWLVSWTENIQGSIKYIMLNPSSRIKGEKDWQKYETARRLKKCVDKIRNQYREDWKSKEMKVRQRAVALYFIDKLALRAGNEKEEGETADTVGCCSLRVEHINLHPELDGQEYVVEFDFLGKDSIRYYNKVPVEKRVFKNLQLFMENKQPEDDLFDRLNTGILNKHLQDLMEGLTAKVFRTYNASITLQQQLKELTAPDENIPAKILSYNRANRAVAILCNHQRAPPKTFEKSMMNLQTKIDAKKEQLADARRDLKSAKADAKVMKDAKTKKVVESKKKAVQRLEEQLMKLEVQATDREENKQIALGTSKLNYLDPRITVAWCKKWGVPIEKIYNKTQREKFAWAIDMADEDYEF
Procedure: To determine whether PCC0208037 inhibited Topo I activity, a DNA relaxation assay was conducted. In this assay, supercoiled plasmid DNA was relaxed and nicked by recombinant Topo I, while no nicked DNA would be found when the Topo I enzyme was inhibited.
A Topoisomerase I Drug Screening Kit was used to detect the inhibitory activity of PCC0208037 against Topo I in the cell-free system. 1 IU Topo I and 250 ng of supercoiled plasmid DNA were pre-incubated with DMSO, PCC0208037 (100 nmol/L and 10 nmol/L), SN-38(100 nmol/L), or CPT (100 nmol/L) in a reaction buffer with a final volume of 20 μL and incubated for 30 min at 37 °C; then, the reaction was stopped by the addition of 2 ul of 10% SDS. Then, proteinase K was added to 50 ug/mL, incubated for 15 min at 37 °C, and 0.1 vol. of a loading buffer (0.25% bromophenol blue, 50% glycerol) was added. The supercoiled, relaxed, or nicked DNA was separated by 1% agarose gel in a 1 TAE (Tris-Acetate-EDTA) buffer. Ethidium bromide-stained agarose gel was photographed using Gel Doc XR.
Figure 4 Inhibition of Topo I activity by PCC0208037. […] Plasmid DNA was separated by an agarose gel and stained with ethidium bromide.

LS180 and HCT116 cells = assay: Western blot of DNA damage and apoptosis related proteins; type: cell-based; conditions: 0.01 and 0.03 μM, compared to control
Procedure: Effects of PCC0208037 on the protein expression levels were examined by Western blotting, as described previously. Briefly, 2 × 10^6 LS180 and HCT116 cells were seeded in 10-cm dishes to adhere overnight. […] At the desired time points, cells were washed twice with a cold PBS. Then, cells were lysed in the RIPA buffer for 30 min on ice. The RIPA buffer contains protease inhibitors and phosphatase inhibitors. After sonication, the samples were centrifuged at 12,000 rpm, and then the supernatants were harvested and assayed for the protein concentration. Equal amounts of protein (30 μg) were separated with a polyacrylamide gel and transferred to a PVDF membrane. The membranes were blocked for 2 h (in 5% skim milk) and then incubated with primary antibodies overnight at 4 °C: ATM p-ATM, ATR, p-ATR, Chk1, p-Chk1, Chk2, p-Chk2, P53, p-P53, Bcl2, gamma H2AX, Bax, Puma, β-actin, and GAPDH. Then, the membranes were incubated with secondary antibodies for 2 h at room temperature. All these antibodies were diluted to a 1:1000 concentration in use. The immunoblots were visualized by a BeyoECL Plus enhanced chemiluminescence system.
Figure 6 Effects of PCC0208037 on molecules related to DNA damage in CRC cells. […]

[1] = PCC0208037- and CPT-11-induced toxicity in mice; conditions: 50 mg/kg/day i.p. for four days

## CCc1c2c(nc3ccc(O)cc13)-c1cc3c(c(=O)n1C2)COC(=O)[C@@]3(CC)OC(=O)Nc1nc(=O)n([C@@H]2O[C@H](C)[C@@H](O)[C@H]2O)cc1F [PCC0208037]
LS180 cells
  IC50: 220 ± 60 nM
HCT116 cells
  IC50: 2900 ± 610 nM
Recombinant Topo I
  inhibition of Topo I activity (supercoiled plasmid DNA relaxation): dose-dependently increased the presence of supercoiled DNA
LS180 and HCT116 cells; 8 h
  protein levels of molecules associated with DNA damage: significantly up-regulated the protein levels of γ-H2AX, p-ATM, p-Chk1, p-Chk2, p-P53, and P53
LS180 and HCT116 cells; 24 h
  protein levels of molecules associated with apoptosis: significantly up-regulated the protein levels of BAX and PUMA and down-regulated the protein level of Bcl-2
[1]; colon after 7 days
  colorectal tissue histomorphological examination (H&E): A mild reduction of goblet cells and a mild infiltration of lymphocytes
[1]; seven-day observation
  mortality: No animal died
  recovery of body weight and food intake decrease: began to recover on the 6th day onwards
